Source: ChEMBL document CHEMBL3885861, “Open TG-GATES”

Organism: Rattus norvegicus
Experiment: Open TG-GATES - Regimen: Single
Type: toxicity, organism-based, Sprague-Dawley
Set-up: regimen Single, gender Male, age 6 weeks
Conditions: in vivo, po, 100 mg/kg, route gavage, dose level Low; for APTT / Bas / Eos / Fbg / Hb / Ht / Lym / MCH / MCHC / MCV / Mono / Neu / PT / Plat / RBC / Ret / WBC: tissue Blood; for KIDNEY_L / KIDNEY_R / KIDNEY_TOTAL: tissue Kidney; for LIVER: tissue Liver; for A/G / ALP / ALT / AST / BUN / CRE / Ca / Cl / DBIL / GLC / IP / K / LDH / Na / PL / RALB / TBIL / TC / TG / TP / gamma-GTP: tissue Plasma

CN(C)[C@@H]1C(O)=C(C(N)=O)C(=O)[C@@]2(O)C(O)=C3C(=O)c4c(O)cccc4[C@@](C)(O)[C@H]3C[C@@H]12 [TETRACYCLINE]
TERMINAL_BW (3 h): 185.7 g | APTT (3 h): 16.7 s | Bas (3 h): 0% | Eos (3 h): 0.8% | Fbg (3 h): 197.8 mg/dL | Hb (3 h): 12.8 g/dL | Ht (3 h): 38.5% | Lym (3 h): 84.2% | MCH (3 h): 21.8 pg | MCHC (3 h): 33.2% | MCV (3 h): 65.7 fL | Mono (3 h): 6.4% | Neu (3 h): 9.2% | PT (3 h): 12.1 s | Plat (3 h): 98.5 x10_4/uL | RBC (3 h): 586.6 x10_4/ul | Ret (3 h): 9.8% | WBC (3 h): 101.6 x10_2/uL | KIDNEY_L (3 h): 0.9 g | KIDNEY_R (3 h): 0.9 g | KIDNEY_TOTAL (3 h): 1.9 g | LIVER (3 h): 8.9 g | A/G (3 h): 2.3 | ALP (3 h): 713.6 IU/L | ALT (3 h): 40 IU/L | AST (3 h): 69.4 IU/L | BUN (3 h): 12 mg/dL | CRE (3 h): 0.5 mg/dL | Ca (3 h): 11.1 mg/dL | Cl (3 h): 104 meq/L | DBIL (3 h): 0.036 mg/dL | GLC (3 h): 179.8 mg/dL | IP (3 h): 10.7 mg/dL | K (3 h): 4.9 meq/L | LDH (3 h): 84.2 IU/L | Na (3 h): 137.4 meq/L | PL (3 h): 127.8 mg/dL | RALB (3 h): 3.8 g/dL | TBIL (3 h): 0.4 mg/dL | TC (3 h): 73.8 mg/dL | TG (3 h): 38 mg/dL | TP (3 h): 5.4 g/dL | gamma-GTP (3 h): 1.2 IU/L | TERMINAL_BW (6 h): 184.5 g | APTT (6 h): 16.5 s | Bas (6 h): 0% | Eos (6 h): 0.6% | Fbg (6 h): 199.6 mg/dL | Hb (6 h): 13.2 g/dL | Ht (6 h): 39.9% | Lym (6 h): 80.2% | MCH (6 h): 21.9 pg | MCHC (6 h): 33.2% | MCV (6 h): 66 fL | Mono (6 h): 5.2% | Neu (6 h): 14.4% | PT (6 h): 12.1 s | Plat (6 h): 107 x10_4/uL | RBC (6 h): 607.2 x10_4/ul | Ret (6 h): 10.1% | WBC (6 h): 95.2 x10_2/uL | KIDNEY_L (6 h): 0.9 g | KIDNEY_R (6 h): 0.9 g | KIDNEY_TOTAL (6 h): 1.7 g | LIVER (6 h): 8.3 g | A/G (6 h): 2.2 | ALP (6 h): 880.4 IU/L | ALT (6 h): 36.2 IU/L | AST (6 h): 69.6 IU/L | BUN (6 h): 12.2 mg/dL | CRE (6 h): 0.4 mg/dL | Ca (6 h): 10.8 mg/dL | Cl (6 h): 106 meq/L | DBIL (6 h): 0.02 mg/dL | GLC (6 h): 175.6 mg/dL | IP (6 h): 10.3 mg/dL | K (6 h): 5.1 meq/L | LDH (6 h): 85.2 IU/L | Na (6 h): 137 meq/L | PL (6 h): 139 mg/dL | RALB (6 h): 3.6 g/dL | TBIL (6 h): 0.3 mg/dL | TC (6 h): 82.2 mg/dL | TG (6 h): 32.4 mg/dL | TP (6 h): 5.3 g/dL | gamma-GTP (6 h): 1.6 IU/L | TERMINAL_BW (9 h): 181.6 g | APTT (9 h): 16.5 s | Bas (9 h): 0% | Eos (9 h): 0.4% | Fbg (9 h): 210.6 mg/dL | Hb (9 h): 12.9 g/dL | Ht (9 h): 39.4% | Lym (9 h): 81.8% | MCH (9 h): 21.8 pg | MCHC (9 h): 32.8% | MCV (9 h): 66.4 fL | Mono (9 h): 5.8% | Neu (9 h): 11.6% | PT (9 h): 12.2 s | Plat (9 h): 102.3 x10_4/uL | RBC (9 h): 592.8 x10_4/ul | Ret (9 h): 9.5% | WBC (9 h): 93.6 x10_2/uL | KIDNEY_L (9 h): 0.9 g | KIDNEY_R (9 h): 0.9 g | KIDNEY_TOTAL (9 h): 1.7 g | LIVER (9 h): 7.5 g | A/G (9 h): 2.2 | ALP (9 h): 861 IU/L | ALT (9 h): 32.8 IU/L | AST (9 h): 64 IU/L | BUN (9 h): 13.2 mg/dL | CRE (9 h): 0.4 mg/dL | Ca (9 h): 10.5 mg/dL | Cl (9 h): 105.8 meq/L | DBIL (9 h): 0.022 mg/dL | GLC (9 h): 176.8 mg/dL | IP (9 h): 10.5 mg/dL | K (9 h): 5.1 meq/L | LDH (9 h): 93.8 IU/L | Na (9 h): 138.4 meq/L | PL (9 h): 126.6 mg/dL | RALB (9 h): 3.8 g/dL | TBIL (9 h): 0.3 mg/dL | TC (9 h): 73.4 mg/dL | TG (9 h): 26 mg/dL | TP (9 h): 5.5 g/dL | gamma-GTP (9 h): 1.8 IU/L | TERMINAL_BW (24 h): 196.8 g | APTT (24 h): 16.4 s | Bas (24 h): 0% | Eos (24 h): 0.5% | Fbg (24 h): 218 mg/dL | Hb (24 h): 13.5 g/dL | Ht (24 h): 41.6% | Lym (24 h): 84% | MCH (24 h): 22 pg | MCHC (24 h): 32.4% | MCV (24 h): 67.9 fL | Mono (24 h): 8.5% | Neu (24 h): 7.2% | PT (24 h): 11.9 s | Plat (24 h): 105.1 x10_4/uL | RBC (24 h): 614 x10_4/ul | Ret (24 h): 10.3% | WBC (24 h): 88.6 x10_2/uL | KIDNEY_L (24 h): 0.9 g | KIDNEY_R (24 h): 0.9 g | KIDNEY_TOTAL (24 h): 1.8 g | LIVER (24 h): 9.1 g | A/G (24 h): 2.1 | ALP (24 h): 914 IU/L | ALT (24 h): 34 IU/L | AST (24 h): 64.8 IU/L | BUN (24 h): 17.8 mg/dL | CRE (24 h): 0.5 mg/dL | Ca (24 h): 11.4 mg/dL | Cl (24 h): 104.8 meq/L | DBIL (24 h): 0 mg/dL | GLC (24 h): 188.5 mg/dL | IP (24 h): 10 mg/dL | K (24 h): 5.2 meq/L | LDH (24 h): 97.8 IU/L | Na (24 h): 140.8 meq/L | PL (24 h): 154.2 mg/dL | RALB (24 h): 3.9 g/dL | TBIL (24 h): 0.3 mg/dL | TC (24 h): 86.5 mg/dL | TG (24 h): 66.2 mg/dL | TP (24 h): 5.8 g/dL | gamma-GTP (24 h): 1 IU/L
